Data as given in ChEMBL document CHEMBL3596161, “Progress Toward the Development of Noscapine and Derivatives as Anticancer Agents” (J Med Chem, 2015).
One block for each compound: values may come before it.

What was measured:
U-251 [1] = assay: Cell cycle arrest in human TMZ-resistant U251 cells assessed as accumulation at G1 phase at 30 uM after 24 hrs by flow cytomtery analysis (reference value: 47.53%); assay type: functional
[2] = Antiproliferative activity against human LN229 cells assessed as decrease in colony formation; assay type: functional, cell-based; settings: LN-229
[3] = Antitumor activity against human H460 cells xenografted in athymic nu/nu mouse assessed as tumor regression at 550 mg/kg/day, po administered for 24 days; assay type: functional, NCI-H460
HeLa [4] = assay: Antimitotic activity against human HeLa cells; assay type: functional, cell-based
Tubulin (Homo sapiens) [5] = molecular target: T1, Tubulin (Homo sapiens) (UniProt P68371+Q9H4B7+P0DPH7+P68366+Q13509+Q71U36+P04350+Q3ZCM7+P07437+P68363+Q9BQE3+Q6PEY2+Q13885+Q9BVA1+Q9BUF5); assay: Inhibition of tubulin polymerization in human HeLa cells assessed as microtubules spent time in attenuated state at 50 uM; assay type: cell-based; parameters: scale not given: the % may be the effect or the level left
Tubulin (Homo sapiens) [6] = molecular target: T1, Tubulin (Homo sapiens); assay: Inhibition of tubulin polymerization in human HeLa cells assessed as polymeric tubulin level at 1 uM; assay type: cell-based; parameters: scale not given: the % may be the effect or the level left
A549 = assay: Cytotoxicity against human A549 cells; assay type: functional, cell-based
C6 = assay: Antitumor activity against rat C6 cells xenografted in mouse assessed as reduction of tumor volume relative to control; assay type: functional
HeLa [7] = assay: Growth inhibition in human HeLa cells assessed as reduction of growth at 50 uM; assay type: functional; settings: read-out: GI
HeLa [8] = assay: Cell cycle arrest in human HeLa cells assessed as accumulation at G2/M phase by measuring 4N DNA content at 6.4 uM by flow cytometry; assay type: functional
Tubulin (Homo sapiens) [9] = molecular target: T1, Tubulin (Homo sapiens); assay: Inhibition of tubulin polymerization in human HeLa cells assessed as polymeric tubulin level at 10 uM; assay type: cell-based; parameters: scale not given: the % may be the effect or the level left
HeLa [10] = assay: Cell cycle arrest in human HeLa cells assessed as accumulation at G2/M phase after 24 hrs by FACS analysis (reference value: 16.5%); assay type: functional
[11] = Antitumor activity against human H460 cells xenografted in athymic nu/nu mouse assessed as tumor regression at 300 mg/kg/day, po administered for 24 days; assay type: functional, NCI-H460
U-251 [12] = assay: Antiproliferative activity against human U251 cells assessed as decrease in colony formation; assay type: functional, cell-based
HeLa [13] = assay: Induction of apoptosis in human HeLa cells after 24 hrs; assay type: functional
HeLa [14] = assay: Cell cycle arrest in human HeLa cells assessed as accumulation at S phase after 24 hrs by FACS analysis (reference value: 12.9%); assay type: functional
Tubulin (Homo sapiens) [15] = molecular target: T1, Tubulin (Homo sapiens); assay: Inhibition of tubulin polymerization in human HeLa cells assessed as polymeric tubulin level at 100 uM; assay type: cell-based; parameters: scale not given: the % may be the effect or the level left
[16] = Cytotoxicity against human H460 cells after 72 hrs; assay type: functional, cell-based; settings: NCI-H460, 72 h
Tubulin (Homo sapiens) [17] = molecular target: T1, Tubulin (Homo sapiens); assay: Inhibition of tubulin polymerization in human HeLa cells assessed as shortening of microtubules at 20 uM; assay type: cell-based; parameters: scale not given: the % may be the effect or the level left
U-251 [18] = assay: Cell cycle arrest in human U251 cells assessed as accumulation at G2/M phase at 30 uM after 24 hrs by flow cytomtery analysis (reference value: 22.31%); assay type: functional
U-251 [19] = assay: Cell cycle arrest in human TMZ-resistant U251 cells assessed as accumulation at G2/M phase at 30 uM after 24 hrs by flow cytomtery analysis (reference value: 19.42%); assay type: functional
U-251 [20] = assay: Cell cycle arrest in human TMZ-resistant U251 cells assessed as accumulation at S phase at 30 uM after 24 hrs by flow cytomtery analysis (reference value: 33.05%); assay type: functional
Tubulin (Homo sapiens) [21] = molecular target: T1, Tubulin (Homo sapiens); assay: Inhibition of tubulin polymerization in human HeLa cells assessed as shortening of microtubules at 50 uM; assay type: cell-based; parameters: scale not given: the % may be the effect or the level left
[22] = Antitumor activity against human H460 cells xenografted in athymic nu/nu mouse assessed as tumor regression at 450 mg/kg/day, po administered for 24 days; assay type: functional, NCI-H460
[23] = Antiproliferative activity against human A172 cells assessed as decrease in colony formation; assay type: functional, cell-based; settings: A 172
CCRF-CEM [24] = assay: Cytotoxicity against human CEM cells; assay type: functional, cell-based
HeLa [25] = assay: Cell cycle arrest in human HeLa cells assessed as accumulation at G1 phase after 24 hrs by FACS analysis (reference value: 45.2%); assay type: functional
U-251 [26] = assay: Cell cycle arrest in human U251 cells assessed as accumulation at S phase at 30 uM after 24 hrs by flow cytomtery analysis (reference value: 18.08%); assay type: functional
U-251 [27] = assay: Cell cycle arrest in human U251 cells assessed as accumulation at G1 phase at 30 uM after 24 hrs by flow cytomtery analysis (reference value: 59.62%); assay type: functional
MCF7 = assay: Cytotoxicity against human MCF7 cells; assay type: functional, cell-based
[28] = Cytotoxicity against human MCF-7 FLV1000 cells expressing […]; assay type: functional, cell-based
HeLa [29] = assay: Cytotoxicity against human HeLa cells; assay type: functional, cell-based
[30] = Antitumor activity against human H460 cells xenografted in athymic nu/nu mouse assessed as tumor regression at 10 mg/kg/day, po administered for 24 days; assay type: functional, NCI-H460
Tubulin (Homo sapiens) [31] = molecular target: T1, Tubulin (Homo sapiens); assay: Inhibition of MAPs-rich tubulin (unknown origin) polymerization at 50 uM; assay type: protein-complex assay
Tubulin [32] = assay: Binding affinity to tubulin (unknown origin) by fluorescence assay; assay type: protein-complex assay, Homo sapiens
[33] = Cell cycle arrest in human CCRF-CEM/VLB100 cells assessed as accumulation at sub-G1 phase by measuring 2N DNA content after 72 hrs; assay type: functional, cell-based
CCRF-CEM [34] = assay: Cell cycle arrest in human CEM cells assessed as accumulation at G2/M phase; assay type: functional
CCRF-CEM [35] = assay: Antitumor activity against human CEM cells xenografted in mouse assessed as reduction of tumor at 300 mg/kg/day, po administered for 26 days; assay type: functional; settings: 624 h, read-out: GI
[36] = Cell cycle arrest in human CCRF-CEM/VLB100 cells assessed as accumulation at G2/M phase; assay type: functional, cell-based
[37] = Cytotoxicity against human Non-small cell lung cancer cell; assay type: functional, cell-based; settings: Cancer cell lines
[38] = Induction of apoptosis in human CCRF-CEM/VLB100 cells assessed as reduction of mitochondrial potential after 24 hrs; assay type: functional; parameters: scale not given: the % may be the effect or the level left
[39] = Antitumor activity against human CCRF-CEM/VLB100 cells xenografted in mouse assessed as reduction of tumor at 300 mg/kg/day, po administered for 32 days; assay type: functional; settings: 768 h, read-out: GI
Tubulin (Homo sapiens) [40] = molecular target: T1, Tubulin (Homo sapiens); assay: Inhibition of colchicine binding to tubulin (unknown origin) at 25 uM; assay type: protein-complex assay
Tubulin [41] = assay: Binding affinity to tubulin (unknown origin); assay type: protein-complex assay, Homo sapiens
CCRF-CEM [42] = assay: Antitumor activity against human CEM cells xenografted in mouse assessed as reduction of tumor at 10 mg/kg/day, iv administered for 26 days; assay type: functional; settings: 624 h, read-out: GI
[43] = Induction of apoptosis in human CCRF-CEM/VLB100 cells assessed as reduction of mitochondrial potential after 72 hrs; assay type: functional; parameters: scale not given: the % may be the effect or the level left
Tubulin (Homo sapiens) [44] = molecular target: T1, Tubulin (Homo sapiens); assay: Inhibition of colchicine binding to tubulin (unknown origin) at 100 uM; assay type: protein-complex assay
Tubulin (Homo sapiens) [45] = molecular target: T1, Tubulin (Homo sapiens); assay: Inhibition of colchicine binding to tubulin (unknown origin) at 50 uM; assay type: protein-complex assay
CCRF-CEM [46] = assay: Cell cycle arrest in human CEM cells assessed as accumulation at sub-G1 phase by measuring 2N DNA content after 72 hrs; assay type: functional

EC50 (HeLa [4]): 18.4 µM
Activity (Tubulin (Homo sapiens) [5]): 12.7%
Activity (Tubulin (Homo sapiens) [6]): 58.3%
Activity (Tubulin (Homo sapiens) [9]): 59.2%
IC50 (U-251 [12]): 40 µM
Activity (Tubulin (Homo sapiens) [15]): 59.2%
Activity (Tubulin (Homo sapiens) [17]): 21.6%
Activity (Tubulin (Homo sapiens) [21]): 24.3%
SMILES: COc1ccc2c(c1OC)C(=O)O[C@@H]2[C@H]1c2c(cc3c(c2OC)OCO3)CCN1C [NOSCAPINE]
Activity (U-251 [1]): 21.54%
IC50 [2]: 70 µM
Activity [3]: 86%
IC50 (A549): 72.9 µM
growth inhibition (GI) (C6): 60%
inhibition of growth at 50 µM (HeLa [7]): 42.4%
Activity (HeLa [8]): 15.2%
Activity (HeLa [10]): 42.9%
Activity [11]: 49%
Activity (HeLa [13]): 50%
Activity (HeLa [14]): 11.1%
IC50 [16]: 34.7 µM
Activity (U-251 [18]): 47.75%
Activity (U-251 [19]): 23.13%
Activity (U-251 [20]): 25.33%
Activity [22]: 65%
IC50 [23]: 20 µM
IC50 (CCRF-CEM [24]): 14.5 µM
Activity (HeLa [25]): 6.4%
Activity (U-251 [26]): 23.33%
Activity (U-251 [27]): 28.92%

SMILES: O=C1c2c(O)ccc(O)c2C(=O)c2c(NCCNCCO)ccc(NCCNCCO)c21 [MITOXANTRONE]
IC50 (MCF7): 0.026 µM
IC50 [28]: 0.435 µM

SMILES: COC(=O)CN1CCc2cc3c(c(OC)c2[C@@H]1[C@H]1OC(=O)c2c1ccc(OC)c2OC)OCO3
IC50 (MCF7): 36 µM
IC50 (A549): 45.4 µM
IC50 (CCRF-CEM [24]): 9.5 µM
IC50 (HeLa [29]): 22.3 µM

SMILES: COc1ccc2c(c1OC)C(=O)O[C@@H]2[C@H]1c2c(cc3c(c2OC)OCO3)CCN1Cc1ccccc1
IC50 (MCF7): 31.2 µM
IC50 (A549): 37.7 µM
IC50 (CCRF-CEM [24]): 8.3 µM
IC50 (HeLa [29]): 19.4 µM

SMILES: CC(=O)O[C@@]12CO[C@@H]1C[C@H](O)[C@@]1(C)C(=O)[C@H](O)C3=C(C)[C@@H](OC(=O)[C@H](O)[C@@H](NC(=O)OC(C)(C)C)c4ccccc4)C[C@@](O)([C@@H](OC(=O)c4ccccc4)[C@H]21)C3(C)C [DOCETAXEL ANHYDROUS]
Activity [30]: 93%

SMILES: COc1ccc2c(c1OC)C(=O)O[C@@H]2[C@@H]1NCCc2cc3c(c(OC)c21)OCO3
IC50 (MCF7): 33.6 µM
IC50 (A549): 41.6 µM
IC50 (CCRF-CEM [24]): 8.9 µM
IC50 (HeLa [29]): 20.9 µM

inhibition (Tubulin (Homo sapiens) [31]): 74%
SMILES: COc1ccc2c(c1OCCCCS(=O)(=O)O)C(=O)O[C@@H]2[C@H]1c2c(cc3c(c2OC)OCO3)CCN1C

Kd (Tubulin [32]): 14 µM
SMILES: COc1ccc2c(c1OC)C(=O)O[C@@H]2[C@H]1c2c(c(N)c3c(c2OC)OCO3)CCN1C

EC50 (HeLa [4]): 7.7 µM
inhibition (Tubulin (Homo sapiens) [40]): 23%
Kd (Tubulin [41]): 54 µM
inhibition (Tubulin (Homo sapiens) [44]): 66%
inhibition (Tubulin (Homo sapiens) [45]): 40%
SMILES: COc1ccc2c(c1OC)C(=O)O[C@@H]2[C@H]1c2c(c(Br)c3c(c2OC)OCO3)CCN1C
Activity [33]: 75%
Activity (CCRF-CEM [34]): 45%
inhibition in vivo at 300 mg/kg/day (CCRF-CEM [35]): 80%
Activity [36]: 47%
IC50 [37]: 4 µM
Activity (HeLa [8]): 51.8%
Activity [38]: 49%
inhibition in vivo at 300 mg/kg/day [39]: 81%
inhibition in vivo at 10 mg/kg/day (CCRF-CEM [42]): 80%
Activity [43]: 99%
Activity (CCRF-CEM [46]): 57%

SMILES: COc1cccc(CN2CCc3cc4c(c(OC)c3[C@@H]2[C@H]2OC(=O)c3c2ccc(OC)c3OC)OCO4)c1
IC50 (MCF7): 24.5 µM
IC50 (A549): 26.9 µM
IC50 (CCRF-CEM [24]): 6.7 µM
IC50 (HeLa [29]): 15.3 µM

Kd (Tubulin [32]): 86 µM
SMILES: COc1ccc2c(c1OC)C(=O)O[C@@H]2[C@H]1c2c(c([N+](=O)[O-])c3c(c2OC)OCO3)CCN1C
